Source: patent US8476197B2, “Aminopropenoates as fungicides” (priority 2009, dated 2013)
Marks after values point to notes of the source that are not given here.

Conditions: pH 2.7

| Structure (SMILES) | Log P |
| --- | --- |
| CCOC(=O)C(C#N)=C(NC(C)COc1ccccc1C)c1cccnc1Cl (stereo not shown) [Compound 1155] | 4.01^[a] |
| CCOC(=O)C(C#N)=C(NC(C)CSc1ccc(Cl)cc1)c1cccnc1Cl (stereo not shown) [Compound 1156] | 4.08^[a] |
| CCOC(=O)C(C#N)=C(NC(C)CSc1cc(Cl)ccc1Cl)c1cccnc1Cl (stereo not shown) [Compound 1157] | 4.27^[a] |
| CCOC(=O)C(C#N)=C(NC(C)CSc1ccc(Cl)c(Cl)c1)c1cccnc1Cl (stereo not shown) [Compound 1158] | 4.41^[a] |
| CCOC(=O)C(C#N)=C(NC(C)C(C)Sc1ccccc1)c1cccnc1Cl (stereo not shown) [Compound 1159] | 4.13^[a] |
| CCOC(=O)C(C#N)=C(NC(C)COc1cccc(C(F)(F)F)c1)c1cccnc1Cl (stereo not shown) [Compound 1160] | 4.13^[a] |
| CCOC(=O)C(C#N)=C(NC(C)COc1ccccc1)c1cccnc1Cl (stereo not shown) [Compound 1161] | 3.58^[a] |
| CCOC(=O)C(C#N)=C(NC(C)COCc1ccccc1)c1cccnc1Cl (stereo not shown) [Compound 1162] | 3.71^[a] |
| CCOC(=O)C(C#N)=C(NC(C)COCc1ccccc1F)c1cccnc1Cl (stereo not shown) [Compound 1163] | 3.69^[a] |
| CCOC(=O)C(C#N)=C(NC(C)COc1ccccc1Cl)c1cccnc1Cl (stereo not shown) [Compound 1164] | 3.78^[a] |
| CCOC(=O)C(C#N)=C(NC(C)COc1ccc(C)cc1)c1cccnc1Cl (stereo not shown) [Compound 1165] | 3.94^[a] |
| CCOC(=O)C(C#N)=C(NC(C)COc1ccc(F)cc1)c1cccnc1Cl (stereo not shown) [Compound 1166] | 3.62^[a] |
| CCOC(=O)C(C#N)=C(NC(C)CCc1ccccc1)c1cccnc1Cl (stereo not shown) [Compound 1167] | 3.92^[a] |
| CCOC(=O)C(C#N)=C(Nc1ccccc1OC(C)C)c1cccnc1Cl [Compound 1168] | 3.8^[a] |
| CCOC(=O)C(C#N)=C(Nc1ccc(OC(F)F)cc1)c1cccnc1Cl [Compound 1169] | 3.19^[a] |
| CCOC(=O)C(C#N)=C(Nc1ccc(SC)cc1)c1cccnc1Cl [Compound 1170] | 3.37^[a] |
| CCOC(=O)C(C#N)=C(NCc1ccccc1SC)c1cccnc1Cl [Compound 1171] | 3.37^[a] |
| CCOC(=O)C(C#N)=C(NC(C)COCc1ccccc1Cl)c1cccnc1Cl (stereo not shown) [Compound 1172] | 4.06^[a] |
| CCOC(=O)C(C#N)=C(NC(C)COc1cccc(OC)c1)c1cccnc1Cl (stereo not shown) [Compound 1173] | 3.58^[a] |
| CCOC(=O)C(C#N)=C(NC(C)CC)c1cccnc1Cl (stereo not shown) [Compound 1174] | 3^[a] |
| CCCCCNC(=C(C#N)C(=O)OCC)c1cccnc1Cl [Compound 1175] | 3.53^[a] |
| C=CCCCC(C=C)NC(=C(C#N)C(=O)OCC)c1cccnc1Cl (stereo not shown) [Compound 1176] | 4.01^[a] |
| CCOC(=O)C(C#N)=C(NC(C)C1CC2CCC1C2)c1cccnc1Cl (stereo not shown) [Compound 1177] | 4.39^[a] |
| CCOC(=O)C(C#N)=C(NC(C)COCC(C)(C)C)c1cccnc1Cl (stereo not shown) [Compound 1178] | 4.34^[a] |
| CCOC(=O)C(C#N)=C(NC(C)COc1c(C)cccc1C)c1cccnc1Cl (stereo not shown) [Compound 1180] | 4.26^[a] |
| C#CC(C)NC(=C(C#N)C(=O)OCC)c1cccnc1Cl (stereo not shown) [Compound 1181] | 2.66^[a] |
| CCOC(=O)C(C#N)=C(NC(C)C1(Cl)CC1)c1cccnc1Cl (stereo not shown) [Compound 1182] | 3.33^[a] |
| CCOC(=O)C(C#N)=C(NCCOC)c1cccnc1Cl [Compound 1183] | 2.17^[a] |

| Structure (SMILES) | Log P |
| --- | --- |
| CCOC(=O)C(C#N)=C(NCCCCO)c1cccnc1Cl [Compound 1184] | 1.75^[a] |
| CCOC(=O)C(C#N)=C(NCCC(C)C)c1cccnc1Cl [Compound 1185] | 3.44^[a] |
| CCOC(=O)C(C#N)=C(NC1CCC1)c1cccnc1Cl [Compound 1186] | 2.92^[a] |
| CCOC(=O)C(C#N)=C(NC(C)CCCC(C)C)c1cccnc1Cl (stereo not shown) [Compound 1187] | 4.62^[a] |
| CCCCCC(C)NC(=C(C#N)C(=O)OCC)c1cccnc1Cl (stereo not shown) [Compound 1188] | 4.26^[a] |
| CCOC(=O)C(C#N)=C(NC1CC1CC)c1cccnc1Cl (stereo not shown) [Compound 1190] | 3.23^[a] |
| CCOC(=O)C(C#N)=C(NC(C)C1CCC1)c1cccnc1Cl (stereo not shown) [Compound 1191] | 3.55^[a] |
| CCOC(=O)C(C#N)=C(NC(C)CC(=O)Nc1ccccc1C)c1cccnc1Cl (stereo not shown) [Compound 1192] | 2.8^[a] |
| CCOC(=O)C(C#N)=C(NC(C)C(=O)Nc1ccc2ccccc2c1)c1cccnc1Cl (stereo not shown) [Compound 1193] | 3.51^[a] |
| CCOC(=O)C(C#N)=C(NC(C)C(=O)OCC)c1cccnc1Cl (stereo not shown) [Compound 1194] | 2.82^[a] |
| CCOC(=O)C(C#N)=C(NC(C(=O)OC)c1ccccc1)c1cccnc1Cl (stereo not shown) [Compound 1195] | 3.08^[a] |
| CCOC(=O)C(C#N)=C(NC(CC(C)C)C(=O)OCC)c1cccnc1Cl (stereo not shown) [Compound 1196] | 3.89^[a] |
| C=CC(COCc1ccccc1)NC(=C(C#N)C(=O)OCC)c1cccnc1Cl (stereo not shown) [Compound 1197] | 3.8^[a] |
| CC#CC(C)NC(=C(C#N)C(=O)OCC)c1cccnc1Cl (stereo not shown) [Compound 1198] | 3.02^[a] |
| CCNC(=O)C(C#N)=C(NC(C)C(C)C)c1cccnc1C#N (stereo not shown) [Compound 1199] | 2.64^[a] |
| CCNC(=O)C(C#N)=C(NC(C)C(C)C)c1ccnc(Cl)c1Cl (stereo not shown) [Compound 1200] | 3.57^[a] |
| CCNC(=O)C(C#N)=C(NC(C)c1ccccn1)c1ccnc(Cl)c1Cl (stereo not shown) [Compound 1201] | 2.53^[a] |
| CCOC(=O)C(C#N)=C(NC(C)C(C)C)c1cn(C)nc1I (stereo not shown) [Compound 1202] | 3.22^[a] |
| CCOC(=O)C(C#N)=C(NC(C)C(C)C)c1cn(C)nc1C (stereo not shown) [Compound 1203] | 2.8^[a] |
| CCOC(=O)C(C#N)=C(NC(C)c1ccccn1)c1cn(C)nc1C (stereo not shown) [Compound 1204] | 1.99^[a] |
| CCOC(=O)C(C#N)=C(NC(C)C(C)C)c1cn(C)nc1CC (stereo not shown) [Compound 1205] | 3.13^[a] |
| CCOC(=O)C(C#N)=C(NC(C)c1ccccn1)c1cn(C)nc1CC (stereo not shown) [Compound 1206] | 2.25^[a] |
| CCOC(=O)C(C#N)=C(NC(C)c1ccccn1)c1cn(C)nc1C(C)C (stereo not shown) [Compound 1207] | 2.58^[a] |
| CCOC(=O)C(C#N)=C(NC(C)C(C)C)c1cn(C)nc1C(C)C (stereo not shown) [Compound 1208] | 3.46^[a] |
| CCOC(=O)C(C#N)=C(NC(C)C(C)C)c1ccnc(Br)c1Cl (stereo not shown) [Compound 1209] | 3.94^[a] |
| CCNC(=O)C(C#N)=C(NC(C)C(C)C)c1ccnc(Br)c1Cl (stereo not shown) [Compound 1210] | 3.6^[a] |
| CCOC(=O)C(C#N)=C(NC(C)C(C)C)c1ccnc(C)c1Cl (stereo not shown) [Compound 1211] | 3.51^[a] |
